Consider 7 molecules from PMC2799665.

The series can be described thus: End-to-end contact formation (no covalent bond): MR121 oxazine dye fluorescence quenched by C-terminal Trp through van der Waals contact/stacking; ns-resolved FCS; single-exponential fit over 6-300 ns with two-state model. As to conditions: the molecule shown is the open-chain precursor; water (aqueous solution); 20.0 °C.
On to `CCN1CCCc2cc3c(cc21)Oc1cc2c(cc1=N3)CCC[N+]=2CCCC(=O)NCC(=O)N[C@@H](CO)C(=O)NCC(=O)N[C@@H](CO)C(=O)NCC(=O)N[C@@H](CO)C(=O)NCC(=O)N[C@@H](CO)C(=O)NCC(=O)N[C@@H](CO)C(=O)NCC(=O)N[C@@H](CO)C(=O)NCC(=O)N[C@@H](CO)C(=O)N[C@@H](Cc1c[nH]c2ccccc12)C(=O)[O-]`, for which the end-to-end contact formation time constant (ns (closing time constant tau+ = 1/k+)) came to 32.7. For `CCN1CCCc2cc3c(cc21)Oc1cc2c(cc1=N3)CCC[N+]=2CCCC(=O)NCC(=O)N[C@@H](CO)C(=O)NCC(=O)N[C@@H](CO)C(=O)NCC(=O)N[C@@H](CO)C(=O)NCC(=O)N[C@@H](CO)C(=O)NCC(=O)N[C@@H](CO)C(=O)NCC(=O)N[C@@H](CO)C(=O)NCC(=O)N[C@@H](CO)C(=O)NCC(=O)N[C@@H](CO)C(=O)NCC(=O)N[C@@H](CO)C(=O)NCC(=O)N[C@@H](CO)C(=O)NCC(=O)N[C@@H](CO)C(=O)NCC(=O)N[C@@H](CO)C(=O)NCC(=O)N[C@@H](CO)C(=O)NCC(=O)N[C@@H](CO)C(=O)NCC(=O)N[C@@H](CO)C(=O)N[C@@H](Cc1c[nH]c2ccccc12)C(=O)[O-]`, the end-to-end contact formation time constant (ns (closing time constant tau+ = 1/k+)) was 103. In the case of `CCN1CCCc2cc3c(cc21)Oc1cc2c(cc1=N3)CCC[N+]=2CCCC(=O)NCC(=O)N[C@@H](CO)C(=O)NCC(=O)N[C@@H](CO)C(=O)NCC(=O)N[C@@H](CO)C(=O)NCC(=O)N[C@@H](CO)C(=O)NCC(=O)N[C@@H](CO)C(=O)N[C@@H](Cc1c[nH]c2ccccc12)C(=O)[O-]` [MR121-Gly-Ser-Gly-Ser-Gly-Ser-Gly-Ser-Gly-Ser-Trp-O-] it was 20.5; in that of `CCN1CCCc2cc3c(cc21)Oc1cc2c(cc1=N3)CCC[N+]=2CCCC(=O)NCC(=O)N[C@@H](CO)C(=O)NCC(=O)N[C@@H](CO)C(=O)N[C@@H](Cc1c[nH]c2ccccc12)C(=O)[O-]` [MR121-Gly-Ser-Gly-Ser-Trp-O-], 14.6; in that of `CCN1CCCc2cc3c(cc21)Oc1cc2c(cc1=N3)CCC[N+]=2CCCC(=O)NCC(=O)N[C@@H](CO)C(=O)NCC(=O)N[C@@H](CO)C(=O)NCC(=O)N[C@@H](CO)C(=O)N[C@@H](Cc1c[nH]c2ccccc12)C(=O)[O-]` [MR121-Gly-Ser-Gly-Ser-Gly-Ser-Trp-O-], 17.6. In the case of `CCN1CCCc2cc3c(cc21)Oc1cc2c(cc1=N3)CCC[N+]=2CCCC(=O)NCC(=O)N[C@@H](CO)C(=O)NCC(=O)N[C@@H](CO)C(=O)NCC(=O)N[C@@H](CO)C(=O)NCC(=O)N[C@@H](CO)C(=O)NCC(=O)N[C@@H](CO)C(=O)NCC(=O)N[C@@H](CO)C(=O)NCC(=O)N[C@@H](CO)C(=O)NCC(=O)N[C@@H](CO)C(=O)NCC(=O)N[C@@H](CO)C(=O)N[C@@H](Cc1c[nH]c2ccccc12)C(=O)[O-]` it was 48.9; in that of `CCN1CCCc2cc3c(cc21)Oc1cc2c(cc1=N3)CCC[N+]=2CCCC(=O)NCC(=O)N[C@@H](CO)C(=O)NCC(=O)N[C@@H](CO)C(=O)NCC(=O)N[C@@H](CO)C(=O)NCC(=O)N[C@@H](CO)C(=O)NCC(=O)N[C@@H](CO)C(=O)NCC(=O)N[C@@H](CO)C(=O)NCC(=O)N[C@@H](CO)C(=O)NCC(=O)N[C@@H](CO)C(=O)NCC(=O)N[C@@H](CO)C(=O)NCC(=O)N[C@@H](CO)C(=O)NCC(=O)N[C@@H](CO)C(=O)NCC(=O)N[C@@H](CO)C(=O)N[C@@H](Cc1c[nH]c2ccccc12)C(=O)[O-]`, 68.4.
